What was measured:
Format in all cases: cell-based
[1] = biological target: EP4 subtype of the human PGE2 receptor (Homo sapiens, UniProt P35408); assay: cAMP antagonism test on the human EP4 receptor (HTRF cAMP detection); conditions: selectivity towards hEP4, IC50 measured by cAMP antagonism test
In short: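 Cells expressing human EP4 preincubated 20 min at RT with compound (0.8 nM–16.5 μM), then stimulated with PGE2 (0.3 nM in 3× solution, with IBMX) 60 min at RT. After lysis, cAMP measured by HTRF competition (665/620 nm ratio); antagonism seen as rise in FRET signal.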

human PGD receptor = biological target: T1, human PGD receptor (Homo sapiens, UniProt Q13258); assay: cAMP antagonism test on the human prostaglandin D receptor (HTRF cAMP detection); conditions: selectivity towards hDP, IC50 measured by cAMP antagonism test
T1 sequence (Q13258 1-359): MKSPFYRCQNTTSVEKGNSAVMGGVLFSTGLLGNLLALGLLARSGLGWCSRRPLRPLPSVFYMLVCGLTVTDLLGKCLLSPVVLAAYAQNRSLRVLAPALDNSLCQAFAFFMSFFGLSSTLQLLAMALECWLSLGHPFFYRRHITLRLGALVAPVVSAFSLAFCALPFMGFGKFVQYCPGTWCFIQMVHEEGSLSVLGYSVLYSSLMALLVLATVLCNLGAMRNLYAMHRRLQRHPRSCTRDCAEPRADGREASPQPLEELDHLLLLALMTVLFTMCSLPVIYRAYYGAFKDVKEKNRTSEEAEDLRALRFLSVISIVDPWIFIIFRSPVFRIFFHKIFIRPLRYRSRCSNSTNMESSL
In short: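 Cells pre-mixed with cAMP-d2 were preincubated with compound (0.8 nM–16.5 μM) for 20 min at RT, then stimulated with 3× PGD2 solution (6 nM, in PBS-IBMX) for 30 min at RT. After lysis (20 min), HTRF read at 665/620 nm; antagonism seen as rise in FRET ratio.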

[2] = biological target: EP2 subtype of the human PGE2 receptor (Homo sapiens, UniProt P43116); assay: cAMP antagonism test on the human EP2 receptor (HTRF cAMP detection); conditions: hEP2 receptor, read-out: Antagonism hEP2 IC50
In short: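 Cells expressing human EP2 preincubated 20 min at RT with compound (0.8 nM–16.5 μM), then stimulated 60 min with PGE2 (3× solution 1.5 nM) in PBS-IBMX. After 20 min lysis, cAMP measured by competitive HTRF with cAMP-d2 and Eu cryptate anti-cAMP antibody (665/620 nm ratio).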

Sequence of EP4 subtype of the human PGE2 receptor (P35408 whole entry): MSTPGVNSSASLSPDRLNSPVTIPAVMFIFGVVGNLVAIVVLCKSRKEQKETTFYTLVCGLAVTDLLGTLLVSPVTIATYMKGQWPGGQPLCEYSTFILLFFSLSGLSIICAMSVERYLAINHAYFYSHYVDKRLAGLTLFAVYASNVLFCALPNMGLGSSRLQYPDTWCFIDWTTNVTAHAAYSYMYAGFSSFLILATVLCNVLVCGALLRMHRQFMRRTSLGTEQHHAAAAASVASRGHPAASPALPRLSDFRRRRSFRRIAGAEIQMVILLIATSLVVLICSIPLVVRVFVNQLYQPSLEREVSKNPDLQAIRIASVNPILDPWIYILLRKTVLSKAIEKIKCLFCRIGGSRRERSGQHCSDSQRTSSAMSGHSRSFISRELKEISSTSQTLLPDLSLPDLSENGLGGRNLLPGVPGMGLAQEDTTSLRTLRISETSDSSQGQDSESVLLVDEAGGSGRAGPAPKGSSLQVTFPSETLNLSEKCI
Sequence of EP2 subtype of the human PGE2 receptor (P43116 whole entry): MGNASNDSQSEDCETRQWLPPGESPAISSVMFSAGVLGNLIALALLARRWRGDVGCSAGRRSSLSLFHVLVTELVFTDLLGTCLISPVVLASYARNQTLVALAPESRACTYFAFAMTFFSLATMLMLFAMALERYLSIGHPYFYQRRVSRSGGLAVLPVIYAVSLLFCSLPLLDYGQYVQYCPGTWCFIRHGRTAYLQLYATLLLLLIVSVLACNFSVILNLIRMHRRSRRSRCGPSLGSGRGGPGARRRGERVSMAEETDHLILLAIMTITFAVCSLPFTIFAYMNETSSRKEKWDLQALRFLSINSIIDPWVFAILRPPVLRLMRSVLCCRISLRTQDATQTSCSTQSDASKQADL

Row | Compound | Selectivity hEP2/hEP4 [1] | Selectivity hEP2/hDP (human PGD receptor) | IC50 [2] [µM]
1 | Cc1c(C(=O)NCC2CC2)ccc2nn(CC3CCN(C(=O)c4ccc(Cl)cc4)CC3)cc12 [Example 402, 2-{[1-(4-chlorobenzoyl)piperidin-4-yl]methyl}-N-(cyclopropylmethyl)-4-methyl-2H-indazol-5-carboxamide] | xxx (xxx > 100) | xxx (xxx > 100) | 0.0777
2 | Cc1c(C(=O)NCC2CCC2)ccc2nn(CC3CCN(C(=O)c4ccc(Oc5ccc(C(F)(F)F)cc5)cc4)CC3)cc12 [Example 403, N-(cyclobutylmethyl)-4-methyl-2-[(1-{4-[4-(trifluoromethyl)phenoxy]benzoyl}-piperidin-4-yl)methyl]-2H-indazol-5-carboxamide] | xxx (xxx > 100) | xxx (xxx > 100) | 0.00959
3 | Cc1c(C(=O)NCC(C)C)ccc2nn(CC3CCN(C(=O)c4ccc(Oc5ccc(C(F)(F)F)cc5)cc4)CC3)cc12 [Example 404, N-isobutyl-4-methyl-2-[(1-{4-[4-(trifluoromethyl)phenoxy]benzoyl}piperidin-4-yl)methyl]-2H-indazol-5-carboxamide] | xxx (xxx > 100) | xxx (xxx > 100) | 0.0202
4 | Cc1c(C(=O)NCC(C)(C)C)ccc2nn(CC3CCN(C(=O)c4ccc(Oc5ccc(C(F)(F)F)cc5)cc4)CC3)cc12 [Example 405, 4-methyl-N-neopentyl-2-[(1-{4-[4-(trifluoromethyl)phenoxy]benzoyl}piperidin-4-yl)methyl]-2H-indazol-5-carboxamide] | x (x: 1-10) | x (x: 1-10) | 2.14
5 | Cc1c(C(=O)NCC2CC2)ccc2nn(CC3CCN(C(=O)c4ccc(Oc5ccc(C(F)(F)F)cc5)cc4)CC3)cc12 [Example 406, N-(cyclopropylmethyl)-4-methyl-2-[(1-{4-[4-(trifluoromethyl)phenoxy]-benzoyl}piperidin-4-yl)methyl]-2H-indazol-5-carboxamide] | xxx (xxx > 100) | xxx (xxx > 100) | 0.00819
6 | Cc1c(C(=O)NCCS(C)(=O)=O)ccc2nn(CC3CCN(C(=O)c4ccc(-c5ccc(F)cc5)cc4)CC3)cc12 [Example 408, 2-({1-[(4′-fluorobiphenyl-4-yl)carbonyl]piperidin-4-yl}methyl)-N-(2-mesylethyl)-4-methyl-2H-indazol-5-carboxamide] | xxx (xxx > 100) | xxx (xxx > 100) | 0.0235

The remaining lines, values ahead:

Row | Selectivity hEP2/hEP4 [1] | Selectivity hEP2/hDP (human PGD receptor) | IC50 [2] [µM] | Compound
7 | xxx (xxx > 100) | xxx (xxx > 100) | 0.0116 | Cc1c(C(=O)NCCC#N)ccc2nn(CC3CCN(C(=O)c4ccc(-c5ccc(F)cc5)cc4)CC3)cc12 [Example 407, N-(2-cyanoethyl)-2-({1-[(4′-fluorobiphenyl-4-yl)carbonyl]piperidin-4-yl}-methyl)-4-methyl-2H-indazol-5-carboxamide]
8 | xxx (xxx > 100) | xxx (xxx > 100) | 0.0318 | Cc1c(C(=O)NCCCO)ccc2nn(CC3CCN(C(=O)c4ccc(-c5ccc(F)cc5)cc4)CC3)cc12 [Example 409, 2-({1-[(4′-fluorobiphenyl-4-yl)carbonyl]piperidin-4-yl}methyl)-N-(3-hydroxypropyl)-4-methyl-2H-indazol-5-carboxamide]
9 | xxx (xxx > 100) | xxx (xxx > 100) | 0.0904 | Cc1c(C(=O)NCCO)ccc2nn(CC3CCN(C(=O)c4ccc(-c5ccc(F)cc5)cc4)CC3)cc12 [Example 410, 2-({1-[(4′-fluorobiphenyl-4-yl)carbonyl]piperidin-4-yl}methyl)-N-(2-hydroxyethyl)-4-methyl-2H-indazol-5-carboxamide]

From patent US9062041B2 (Bayer Intellectual Property GmbH, priority 2011, dated 2015)
